SMILES strings stand for the structures. Entries after “also recorded” stand apart in the source; their conditions may differ.

This assay deals with Aco1. The assay is described as follows: Quantitative PCR of Aco1 mRNA in rat prefrontal cortex and hippocampus after Li or VPA. It is filed as in vivo. As to conditions: normalized to Gapdh; for Aco1 gene expression: relative to control, mean ± SD; for mRNA levels of Aco1: rat prefrontal cortex and hippocampus, chronic (4-weeks) treatment, vs control. As for the experimental part: Real-time quantitative RT-PCR analysis was conducted using an ABI7900HT Fast Real-Time PCR System (Applied Biosystems, Foster City, Calif.) in both human and rat samples. TaqMan probes and primers for the seven genes (ACO1, ACO2, IDH1, IDH2, IDH3A, IDH3B, IDH3G) and GAPDH (an internal control) (Table 11) were TAQMAN® Gene Expression Assays products (Applied Biosystems).
The CSF concentrations of 116 major metabolites from several pathways were measured. […] Male Sprague-Dawley rats (Japan SLC Inc., Shizuoka, Japan) aged 6 weeks old were used in this study. All rats were housed in groups of three per cage in a room maintained at 23° C.±2° C. and 60±10% humidity with a 12/12 hour light/dark cycle (lights on at 7:00 a.m.). The rats were given free access to food and water. Animal care and use were conducted in accordance with the Institutional Guidelines for Animal Care and Use of Otsuka Pharmaceutical Co., Ltd. (Tokushima, Japan). […] The drinking water was replaced twice a week. […] All animals were decapitated on day 30 after CSF sampling, and brain regions (prefrontal cortex, and hippocampus) were dissected rapidly on ice. Metabolomic analyses of rat CSF samples were performed as described herein.
Prefrontal cortex, and hippocampus were dissected rapidly on ice and stored in RNA later (Applied Biosystems) at 4° C. until used for RNA isolation, cDNA synthesis and polymerase chain reaction (PCR) amplification. The total RNA was extracted using the RNeasy Lipid Tissue Mini Kit (QIAGEN) following the instructions of manufacturer. RNA yield and integrity was assessed using Nanodrop (NanoDrop Technologies). Reverse transcription of total RNA was done using the […] VILO cDNA Synthesis Kit (Invitrogen). In the quantitative PCR, the cDNA was amplified using commercial TaqMan assays (Applied Biosystems) for rat Idh3A (Rn00586270_m1), Idh3B (Rn00504589_g1), Aco1 (Rn00569045_m1), Aco2 (Rn00577876_m1) and Gapdh (Rn01775763_g1) with an ABI 7500 Fast Real-Time PCR system (Applied Biosystems). (Table 17) Reactions were performed in triplicates. All reactions were normalized to Gapdh and presented as relative expression changes compared to control.

Turning to `O=C([O-])[O-].[Li+].[Li+]` [Li, lithium carbonate], the “mRNA levels of Aco1” value is listed as “did not alter; also recorded: not altered”. The compound further yielded an Aco1 gene expression (rat hippocampus) of 1.0171 ± 0.0497. This compound had an Aco1 gene expression (rat prefrontal cortex) of 1.0091 ± 0.1737.

On to `CCCC(CCC)C(=O)[O-].[Na+]` [VPA, valproic acid sodium salt], for which the Aco1 gene expression stood at 1.0956 ± 0.0520 (rat hippocampus) and 1.1550 ± 0.1237 (rat prefrontal cortex). Further, the “mRNA levels of Aco1” value (sodium salt) is recorded as “did not alter; also recorded: not altered”.
